The subject of one series is GH3-TRE-Luc cell line. Particulars: read-out: AC50 (uM) modified / 1000, viability, 1 nM T3 present, 24 h.
The nature of the next series: in vitro. Particulars: rat, gh3-tre-luc cells, AC50 (uM) modified / 1000.

Counter-ions that a name gives are not always drawn. Like-named read-outs stand apart in the source and are kept apart here.

Consider `CCN(CC)CCOc1ccc(C(=C(Cl)c2ccccc2)c2ccccc2)cc1` [Clomiphene], for which the CC50 in the series on GH3-TRE-Luc cell line (Tox21_110001=Tox21_113110) stood at 7.27 µM. In “in vitro”, this compound registered a CC50 at 24 h of 6.61 µM.

Take `CC(C)(c1ccccc1)c1ccc(O)cc1` [4-Cumylphenol]: the CC50 in the series with GH3-TRE-Luc cell line (Tox21_110001=Tox21_300056) was found to be 51 µM. This compound showed a CC50 at 24 h in the series “in vitro” of 45.2 µM.

As to `CC(C)(C)CC(C)(C)c1ccc(O)cc1` [4-(1,1,3,3-Tetramethylbutyl)phenol], the CC50 with GH3-TRE-Luc cell line (Tox21_110001=Tox21_112084) was determined as 22.4 µM. This compound had a CC50 at 24 h in the series “in vitro” of 35.1 µM.

Take `C=CC(=O)OCC(CO)(COC(=O)C=C)COC(=O)C=C` [Pentaerythritol triacrylate]: in the series with GH3-TRE-Luc cell line (Tox21_110001=Tox21_303252), the CC50 stood at 2.61 µM. The compound also came in with a CC50 at 24 h in the series “in vitro” of 1.77 µM.

With `CCN(CC)C(=O)c1cc(S(=O)(=O)Cc2ccccc2)c(N2CCC(c3ccccc3)CC2)cc1N(CC)CCN(C)C` [HMR1171 trifluoroacetate (1:1)], the CC50 in the series on GH3-TRE-Luc cell line (Tox21_110001=Tox21_113204) stood at 3.38 µM. Besides, in the series “in vitro”, the CC50 at 24 h worked out at 4.78 µM.

On to `Cc1ccc(N)c(N)c1` [3,4-Diaminotoluene], for which the CC50 with GH3-TRE-Luc cell line (Tox21_110001=Tox21_300507) is 18.4 µM. Besides, the CC50 at 24 h in the series “in vitro” amounted to 32.1 µM.

For `O=S(=O)(O)c1cc(S(=O)(=O)O)c2c(N=Nc3ccccc3)c(O)ccc2c1` [C.I. Acid Orange 10], the CC50 with GH3-TRE-Luc cell line (Tox21_110001=Tox21_303019) is 48.6 µM. This compound also came in with a CC50 at 24 h in the series “in vitro” of 46.4 µM.

As to `CCCCCCc1ccc(O)cc1O` [4-Hexylresorcinol], in the series on GH3-TRE-Luc cell line (Tox21_110001=Tox21_300357), the CC50 amounted to 56.7 µM. In the series “in vitro”, the CC50 at 24 h was found to be 61 µM.

In the case of `COc1cc2c(cc1O)CCN[C@]21CS[C@@H]2c3c(OC(C)=O)c(C)c4c(c3[C@H](COC1=O)N1[C@@H]2[C@H]2c3c(cc(C)c(OC)c3O)C[C@@H]([C@@H]1O)N2C)OCO4` [Trabectedin], the CC50 in the series on GH3-TRE-Luc cell line (Tox21_110001=Tox21_113236) stood at 0.0049 µM. In the series “in vitro”, the CC50 at 24 h was found to be 0.00433 µM.

For `CO[C@H]1/C=C/O[C@@]2(C)Oc3c(C)c(O)c4c(O)c(c(/C=N/N5CCN(C)CC5)c(O)c4c3C2=O)NC(=O)/C(C)=C\C=C\[C@H](C)[C@H](O)[C@@H](C)[C@@H](O)[C@@H](C)[C@H](OC(C)=O)[C@@H]1C` [Rifampicin], the CC50 in the series with GH3-TRE-Luc cell line (Tox21_110001=Tox21_111329) turned out to be 24.2 µM; in the series with GH3-TRE-Luc cell line (Tox21_110001=Tox21_300550) it was 32.4 µM. The compound further returned a CC50 at 24 h in the series “in vitro” of 29.8 µM.

`Oc1c(I)cc(Cl)c2cccnc12` [Clioquinol]: the CC50 with GH3-TRE-Luc cell line (Tox21_110001=Tox21_110416) amounted to 43.7 µM. This compound also showed a CC50 at 24 h in “in vitro” of 43.1 µM.

For `CCCCCCCOC(=O)c1ccc(O)cc1` [Heptylparaben], in the series on GH3-TRE-Luc cell line (Tox21_110001=Tox21_303458), the CC50 amounted to 50.7 µM. Besides, in the series “in vitro”, the CC50 at 24 h is 47.8 µM.

Consider `CC(C)(c1cc(Br)c(O)c(Br)c1)c1cc(Br)c(O)c(Br)c1` [3,3',5,5'-Tetrabromobisphenol A], for which the CC50 turned out to be 43.3 µM with GH3-TRE-Luc cell line (Tox21_110001=Tox21_201981) and 38.6 µM with GH3-TRE-Luc cell line (Tox21_110001=Tox21_300561). In the series “in vitro”, this compound gave a CC50 at 24 h of 39.3 µM.

Take `Oc1ccccc1O` [Catechol]: the CC50 in the series with GH3-TRE-Luc cell line (Tox21_110001=Tox21_300153) was found to be 32.6 µM. In the series “in vitro”, the CC50 at 24 h stood at 33.7 µM.

Regarding `c1cc(N(CC2CO2)CC2CO2)ccc1OCC1CO1` (stereo not shown) [4-(Diglycidylamino)phenyl glycidyl ether], the CC50 in the series on GH3-TRE-Luc cell line (Tox21_110001=Tox21_302646) turned out to be 25.4 µM. The compound further yielded a CC50 at 24 h in “in vitro” of 30.4 µM.

For `COc1cc(-c2ccc(N)c(OC)c2)ccc1N` [3,3'-Dimethoxybenzidine dihydrochloride], in the series with GH3-TRE-Luc cell line (Tox21_110001=Tox21_300315), the CC50 came out at 65 µM. Also, the CC50 at 24 h in the series “in vitro” is > 90 µM.

For `O=C1c2ccccc2C(=O)N1SC1CCCCC1` [N-(Cyclohexylthio)phthalimide], the CC50 in the series on GH3-TRE-Luc cell line (Tox21_110001=Tox21_303596) was determined as 23.2 µM. The CC50 at 24 h in the series “in vitro” was determined as 37 µM.

Turning to `Nc1ccc([N+](=O)[O-])cc1N` [4-Nitro-1,2-phenylenediamine], the CC50 with GH3-TRE-Luc cell line (Tox21_110001=Tox21_302811) came out at 26.4 µM. Moreover, the CC50 at 24 h in “in vitro” stood at 21.8 µM.

Turning to `Cc1ccc(S(=O)(=O)Oc2ccc(N=Nc3ccc(-c4ccc(N=Nc5c(O)ccc6cc(S(=O)(=O)O)cc(S(=O)(=O)O)c56)c(C)c4)cc3C)cc2)cc1` [C.I. Acid Red 114], the CC50 in the series on GH3-TRE-Luc cell line (Tox21_110001=Tox21_302977) was 17.5 µM. Moreover, the CC50 at 24 h in the series “in vitro” came to 32.3 µM.

For `C#C[C@]1(OC(C)=O)CC[C@H]2[C@@H]3CCC4=C[C@@H](OC(C)=O)CC[C@@H]4[C@H]3CC[C@@]21C` [Ethynodiol diacetate], the CC50 with GH3-TRE-Luc cell line (Tox21_110001=Tox21_112924) amounted to 44.6 µM. The compound also came in with a CC50 at 24 h in the series “in vitro” of 45 µM.

On to `ClC1=C(Cl)C(Cl)(Cl)C(Cl)=C1Cl` [Hexachlorocyclopentadiene], for which the CC50 with GH3-TRE-Luc cell line (Tox21_110001=Tox21_302780) was determined as 58 µM. Further, the CC50 at 24 h in “in vitro” is > 90 µM.

`CC(C)(C)c1cc(C(C)(C)C)c(O)c(C(C)(C)C)c1` [2,4,6-Tris(tert-butyl)phenol]: the CC50 in the series on GH3-TRE-Luc cell line (Tox21_110001=Tox21_300121) was 28.2 µM. This compound also had a CC50 at 24 h in “in vitro” of 27.4 µM.

Regarding `Oc1ccc2ccccc2c1N=Nc1ccccc1` [C.I. Solvent Yellow 14], the CC50 in the series on GH3-TRE-Luc cell line (Tox21_110001=Tox21_300297) was 62.3 µM. Besides, the CC50 at 24 h in the series “in vitro” was > 90 µM.

For the compound `CC[C@H](C)C(=O)O[C@H]1C[C@@H](C)C=C2C=C[C@H](C)[C@H](CC[C@@H]3C[C@@H](O)CC(=O)O3)[C@H]21` [Lovastatin], the CC50 with GH3-TRE-Luc cell line (Tox21_110001=Tox21_110888) was 43 µM; in the series with GH3-TRE-Luc cell line (Tox21_110001=Tox21_300268), 67 µM. For the same compound, the CC50 at 24 h in “in vitro” was found to be 73.4 µM.

As for `O=C(Nc1ccccc1SSc1ccccc1NC(=O)c1ccccc1)c1ccccc1` [2,2'-Dibenzoylaminodiphenyl disulfide], the CC50 with GH3-TRE-Luc cell line (Tox21_110001=Tox21_303466) is 72.6 µM. This compound also registered a CC50 at 24 h in the series “in vitro” of 89.8 µM.

Consider `O=C(O)C1=NN(c2ccc(S(=O)(=O)O)cc2)C(=O)C1N=Nc1ccc(S(=O)(=O)O)cc1` (stereo not shown) [FD&C Yellow 5], for which the CC50 in the series on GH3-TRE-Luc cell line (Tox21_110001=Tox21_201539) amounted to 43.1 µM; in the series on GH3-TRE-Luc cell line (Tox21_110001=Tox21_300554), 61.1 µM. Besides, the CC50 at 24 h in the series “in vitro” was > 50 µM.

On to `O=Cc1ccccc1C=O` [1,2-Benzenedicarboxaldehyde], for which the CC50 in the series on GH3-TRE-Luc cell line (Tox21_110001=Tox21_112347) worked out at 8.06 µM. The compound further showed a CC50 at 24 h in the series “in vitro” of 4.89 µM.

Turning to `CC(=O)OC/C=C(C)/C=C/C=C(C)/C=C/C1=C(C)CCCC1(C)C` [Retinol acetate], the CC50 with GH3-TRE-Luc cell line (Tox21_110001=Tox21_201423) amounted to 65.7 µM. In “in vitro”, the CC50 at 24 h was > 50 µM.

With `CN(C)c1ccc(C(=N)c2ccc(N(C)C)cc2)cc1` [Auramine hydrochloride], the CC50 with GH3-TRE-Luc cell line (Tox21_110001=Tox21_303002) amounted to 57.6 µM. The compound also returned a CC50 at 24 h in “in vitro” of 63.2 µM.

As to `Cc1[nH]cnc1C[C@H]1CCc2c(C)c3ccccc3n2C1=O` [Fabesetron], the CC50 in the series with GH3-TRE-Luc cell line (Tox21_110001=Tox21_113200) amounted to 23.5 µM. Moreover, the CC50 at 24 h in “in vitro” was determined as 33.3 µM.

For `OC(CCN1CCCCC1)(c1ccccc1)C1CC2C=CC1C2` (stereo not shown) [Biperiden hydrochloride], in the series on GH3-TRE-Luc cell line (Tox21_110001=Tox21_113064), the CC50 was found to be 27 µM. The compound further showed a CC50 at 24 h in the series “in vitro” of 22.6 µM.

In the case of `c1ccc(Nc2ccc3ccccc3c2)cc1` [N-Phenyl-2-naphthylamine], the CC50 with GH3-TRE-Luc cell line (Tox21_110001=Tox21_302900) was > 90 µM. The CC50 at 24 h in the series “in vitro” is 47.3 µM.

As for `CC1(C)C(C(=O)OC(C#N)c2cccc(Oc3ccccc3)c2)C1(C)C` (stereo not shown) [Fenpropathrin], in the series on GH3-TRE-Luc cell line (Tox21_110001=Tox21_300882), the CC50 came to 80.7 µM. Also, in the series “in vitro”, the CC50 at 24 h is > 90 µM.
